# System: U937 cells
# Experiment: Delivery of labeled BSA to cells (fluorescent microscope)
# Format: cell-based
# Conditions: for Cells displaying fluorescense: overnight at 37° C.
# Method: U937 cells were grown to approximately 10^6/ml and centrifuged, washed in growth medium (RPMI), suspended in 3.5 ml of RPMI, and 0.8 ml was placed in each of four 35 mm wells. BSA-BF and BSA-F, each at a concentration of 20 mg/ml, were added to the four wells together with 200 ul of RPMI as follows:
# The cell suspensions were incubated overnight at 37° C. One ml of cell suspension was placed in 2.0 ml of RPMI and centrifuged at 1000 rpm for 5 minutes. The supernatants were decanted and the cells were resuspended in 200 ul of RPMI. Samples of each cell suspension were placed on a microscope slide and examined using a fluorescent microscope.
substance,measurement,setting,value
BSA-F: Bovine Serum Albumin labeled with fluourescein alone [reference compound],Cells displaying fluorescense,20 ul of 20 mg/ml,< 5%
same,Cells displaying fluorescense,50 ul of 20 mg/ml,< 5%
BSA-BF: Bovine Serum Albumin labeled by conjugation with both biotin and fluorescein,Localisation of fluorescense in cells undergoing mitosis,,bright fluorescense that was confined to the nuclei
same,Cells displaying fluorescense,20 ul of 20 mg/ml,Approximately 40%
same,Cells displaying fluorescense,50 ul of 20 mg/ml,Approximately 40%
